Among the test systems are BT-549 breast; COLO 205 colon; HT29 colon; NCI-H23 lung; PC-3 prostate; SF-539 CNS; TK-10 renal; U251 CNS; UACC-62 melanoma; LOX IMVI melanoma.
Assay in all cases: inhibition of tumour cell growth, NCI panel, 48 h

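The compound was tested at five concentrations on cells cultured in 96-well plates, with a 48-hour exposure period. Here, GI50 denotes the concentration required for 50% inhibition of growth. Definition used: TGI = concentration required for complete inhibition of growth.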

Take `O=C(O)Cn1cc([N+](=O)[O-])c(=O)c2ccccc21`: the TGI with BT-549 breast is > 100 µM; in the test with COLO 205 colon it was 33.7 µM; in the test with HT29 colon, > 100 µM; with NCI-H23 lung it was > 100 µM; with PC-3 prostate, > 100 µM; in the test with SF-539 CNS, > 100 µM. Further, the TGI in the test on TK-10 renal, with U251 CNS and in the test on UACC-62 melanoma was > 100 µM in each case.

For `C/C=N\N1C(=O)c2ccccc2C1=O`, the TGI in the test on HT29 colon, with LOX IMVI melanoma, in the test with NCI-H23 lung, in the test with SF-539 CNS, in the test on TK-10 renal and in the test on UACC-62 melanoma was > 100 µM each time.

Regarding `O=c1oc2ccccc2c(O)c1C(C/C(CCN1CCCC1)=N\Nc1ccccc1)c1ccccc1` (configuration not stated), the TGI in the test with HT29 colon, in the test with LOX IMVI melanoma, in the test with NCI-H23 lung, with SF-539 CNS, in the test on TK-10 renal and in the test with U251 CNS was > 100 µM throughout. Moreover, the TGI in the test on UACC-62 melanoma was > 100 µM.

`C=CC(C)(C)C(=C)C(=O)Nc1ccccc1I`: the TGI with COLO 205 colon, in the test with HT29 colon, with LOX IMVI melanoma, with NCI-H23 lung, with PC-3 prostate and in the test on U251 CNS was > 100 µM each time. Moreover, the TGI with UACC-62 melanoma is > 100 µM.

In the case of `O=C(/C=C\c1cccc2ccccc12)c1cccc2ccccc12`, the GI50 is 4.47 µM in the test on HT29 colon, 4.42 µM in the test with LOX IMVI melanoma, 2.09 µM in the test with NCI-H23 lung and 12 µM in the test with U251 CNS. Moreover, the TGI came out at 18 µM in the test on LOX IMVI melanoma; 8.96 µM in the test on NCI-H23 lung; 28 µM in the test on SF-539 CNS; 24.4 µM in the test on U251 CNS; 27.8 µM with UACC-62 melanoma.

`Oc1ccc(Cl)cc1C1=NC(/N=C\c2ccccc2)=NC(c2ccccc2)C1` (configuration not stated): the TGI with BT-549 breast, in the test with COLO 205 colon, with HT29 colon, in the test on NCI-H23 lung, in the test with PC-3 prostate and in the test with SF-539 CNS was > 100 µM each time. Besides, the TGI with TK-10 renal, with U251 CNS and in the test with UACC-62 melanoma was > 100 µM throughout.

For `O=C1c2ccccc2C(=O)c2[nH]c(Cc3ccc(F)cc3)nc21`, the TGI worked out at 41 µM with COLO 205 colon; 30.3 µM in the test with HT29 colon; 32 µM with SF-539 CNS; 53.1 µM in the test on TK-10 renal; 47 µM in the test on U251 CNS; 35.5 µM in the test on UACC-62 melanoma.

Regarding `C=CCC(C(=O)Nc1cccc2[nH]cnc12)C(=O)OCC` (configuration not stated), the TGI in the test with BT-549 breast, in the test on HT29 colon, in the test on LOX IMVI melanoma, in the test on PC-3 prostate, in the test with SF-539 CNS and in the test on TK-10 renal was > 100 µM in each case. For the same compound, the TGI in the test with U251 CNS and in the test on UACC-62 melanoma was > 100 µM throughout.

On to `NC1CC=C(COC(=O)C(O)(c2ccccc2)C2CC2)CC1` (configuration not stated), for which the TGI in the test with COLO 205 colon, in the test with HT29 colon, in the test on LOX IMVI melanoma, in the test with NCI-H23 lung, with PC-3 prostate and with SF-539 CNS was > 100 µM in each case. For the same compound, the TGI in the test with TK-10 renal, with U251 CNS and with UACC-62 melanoma was > 100 µM throughout.

Regarding `CN(Cc1cc(Cl)c(Cl)cc1NC(=O)CN)[C@H]1CCCC[C@@H]1N1CCCC1`, the TGI with COLO 205 colon was 33.9 µM; in the test with HT29 colon it was 47.9 µM; in the test with LOX IMVI melanoma, 32.3 µM; in the test on NCI-H23 lung, > 100 µM; in the test on PC-3 prostate, > 100 µM; in the test with TK-10 renal, > 100 µM. In addition, the figures for the TGI with U251 CNS and in the test with UACC-62 melanoma were 18.8 µM and 31.5 µM, respectively.

`CC(=O)Nc1ccccc1NC1CC(C)N(c2ccccc2)N1C(C)=O` (configuration not stated): the TGI in the test on COLO 205 colon, in the test with HT29 colon, in the test with NCI-H23 lung, in the test with PC-3 prostate, with TK-10 renal and in the test on UACC-62 melanoma was > 10 µM in each case.

With `COc1cc(Br)c(CC2C3=C(CCN2C(=O)C2CCC2)CC(=O)CC3)cc1O` (configuration not stated), the TGI in the test on COLO 205 colon is 40 µM; in the test with HT29 colon, 71.6 µM; in the test on LOX IMVI melanoma it was > 100 µM; in the test with NCI-H23 lung, 51.9 µM; in the test with PC-3 prostate, > 100 µM; in the test on SF-539 CNS, > 100 µM. Further, the TGI was > 100 µM in the test with TK-10 renal, > 100 µM in the test with U251 CNS and 36.3 µM in the test on UACC-62 melanoma.

On to `O=C(CSc1nc2ccccc2c(=O)n1-c1ccccc1)N=Nc1c(O)[nH]c2ccc(F)cc12`, for which the TGI in the test on COLO 205 colon is 5.73 µM; with HT29 colon, 6.96 µM; in the test with LOX IMVI melanoma, > 100 µM; in the test with NCI-H23 lung it was 9.21 µM; in the test on PC-3 prostate, 3.77 µM; with SF-539 CNS, 9.21 µM. The results for the TGI with U251 CNS and in the test with UACC-62 melanoma were > 100 µM and 4.82 µM, respectively.

Consider `CN1C/C(=C\C=C\c2ccccc2)C(=O)/C(=C/C=C/c2ccccc2)C1`, for which the TGI with COLO 205 colon, in the test with HT29 colon, in the test on LOX IMVI melanoma, in the test on NCI-H23 lung, with SF-539 CNS and with TK-10 renal was > 100 µM in each case. Besides, the TGI in the test on U251 CNS and in the test with UACC-62 melanoma was > 100 µM throughout.

For the compound `CCCC(=O)[O-].N.N.N.N.N.[Co+3].[O-][Cl+3]([O-])([O-])[O-]`, the TGI in the test on COLO 205 colon, in the test with HT29 colon, with LOX IMVI melanoma, with NCI-H23 lung, in the test with SF-539 CNS and with TK-10 renal was > 100 µM each time. Further, the TGI in the test with U251 CNS and with UACC-62 melanoma was > 100 µM throughout.

Turning to `CC(=O)N/C(=C\c1ccc(Cc2nc3c([nH]2)C(=O)c2ccccc2C3=O)cc1)c1nc2c([nH]1)C(=O)c1ccccc1C2=O`, the TGI in the test with COLO 205 colon, with HT29 colon, with LOX IMVI melanoma, in the test on NCI-H23 lung, in the test on SF-539 CNS and with TK-10 renal was > 100 µM each time. Besides, in the test on U251 CNS, the TGI is > 100 µM.

In the case of `CCOC(=O)C(NC(=O)OC(C)(C)C)C(=O)OCC`, the TGI in the test on BT-549 breast, with COLO 205 colon, in the test with HT29 colon, in the test on NCI-H23 lung, with PC-3 prostate and in the test on TK-10 renal was > 100 µM each time. The TGI in the test with U251 CNS and in the test with UACC-62 melanoma was > 100 µM each time.

Values taken from PubChem BioAssay (NCI).
